ChEMBL document CHEMBL3120080, “Characterization of lovastatin-docosahexaenoate anticancer properties against breast cancer cells” (Bioorg Med Chem, 2014)
Active and inactive are the calls of the source. The rule behind the calls is not given here.

Assays:
MDA-MB-231 [1] = assay: Growth inhibition of PR, ER, HER2-negative human MDA-MB-231 cells at <25 uM after 48 hrs by WST-1 assay; assay type: functional, cell-based
MDA-MB-231 [2] = assay: Induction of apoptosis in human MDA-MB-231 cells assessed as apoptotic cells at 1 uM after 48 hrs by annexin V/propidium iodide based flow cytometry (reference value: 2.4 +/-0.5%); assay type: functional
MDA-MB-231 [3] = assay: Downregulation of p21 expression in human PR, ER, HER2-negative human MDA-MB-231 cells at 10 uM after 24 hrs by western blot analysis; assay type: functional, cell-based
MDA-MB-231 [4] = assay: Induction of apoptosis in human MDA-MB-231 cells assessed as apoptotic cells at 5 uM after 48 hrs by annexin V/propidium iodide based flow cytometry (reference value: 2.4 +/-0.5%); assay type: functional
MDA-MB-231 [5] = assay: Induction of apoptosis in human MDA-MB-231 cells assessed as viable cells at 5 uM after 48 hrs by annexin V/propidium iodide based flow cytometry (reference value: 93.2 +/-0.9%); assay type: functional; details: MDA-MB-231, 48 h, read-out: Activity
MDA-MB-361 [6] = assay: Growth inhibition of ER-positive, HER2-positive human MDA-MB-361 cells after 48 hrs by WST-1 assay; assay type: functional, cell-based
MCF7 [7] = assay: Growth inhibition of ER-positive, HER2-negative human MCF7 cells after 48 hrs by WST-1 assay; assay type: functional, cell-based
MDA-MB-231 [8] = assay: Induction of apoptosis in human MDA-MB-231 cells assessed as necrotic cells at 5 uM after 48 hrs by annexin V/propidium iodide based flow cytometry (reference value: 4.4 +/-0.4%); assay type: functional
MDA-MB-231 [9] = assay: Cell cycle arrest in PR, ER, HER2-negative human MDA-MB-231 cells assessed as accumulation at G0/G1 phase at 1 uM after 30 hrs by flow cytometer (reference value: 49.8 +/-1.5%); assay type: functional
MDA-MB-231 [10] = assay: Cell cycle arrest in PR, ER, HER2-negative human MDA-MB-231 cells assessed as accumulation at G2/M phase at 1 uM after 30 hrs by flow cytometer (reference value: 17.1 +/-2.1%); assay type: functional
MDA-MB-231 [11] = assay: Cell cycle arrest in PR, ER, HER2-negative human MDA-MB-231 cells assessed as accumulation at G0/G1 phase at 10 uM after 30 hrs by flow cytometer (reference value: 49.8 +/-1.5%); assay type: functional
MDA-MB-231 [12] = assay: Induction of apoptosis in human MDA-MB-231 cells assessed as viable cells at 10 uM after 48 hrs by annexin V/propidium iodide based flow cytometry (reference value: 93.2 +/-0.9%); assay type: functional; details: MDA-MB-231, 48 h, read-out: Activity
MDA-MB-231 [13] = assay: Induction of apoptosis in human MDA-MB-231 cells assessed as apoptotic cells at 10 uM after 48 hrs by annexin V/propidium iodide based flow cytometry (reference value: 2.4 +/-0.5%); assay type: functional
MDA-MB-231 [14] = assay: Cell cycle arrest in PR, ER, HER2-negative human MDA-MB-231 cells assessed as accumulation at S phase at 10 uM after 30 hrs by flow cytometer (reference value: 33.1 +/-0.3%); assay type: functional
MDA-MB-468 [15] = assay: Growth inhibition of PR, ER, HER2-negative human MDA-MB-468 cells after 48 hrs by WST-1 assay; assay type: functional, cell-based
MDA-MB-231 [16] = assay: Induction of apoptosis in human MDA-MB-231 cells assessed as viable cells at 1 uM after 48 hrs by annexin V/propidium iodide based flow cytometry (reference value: 93.2 +/-0.9%); assay type: functional; details: MDA-MB-231, 48 h, read-out: Activity
MDA-MB-231 [17] = assay: Cell cycle arrest in PR, ER, HER2-negative human MDA-MB-231 cells assessed as accumulation at G2/M phase at 10 uM after 30 hrs by flow cytometer (reference value: 17.1 +/-2.1%); assay type: functional
AU565 [18] = assay: Total growth inhibition of ER-negative, HER2-positive human AU565 cells at >15 uM after 48 hrs by WST-1 assay; assay type: functional, cell-based
HMEC [19] = assay: Cytotoxicity against human HMEC assessed as growth inhibition after 48 hrs by WST-1 assay; assay type: cell-based
MDA-MB-231 [20] = assay: Induction of apoptosis in human MDA-MB-231 cells assessed as necrotic cells at 1 uM after 48 hrs by annexin V/propidium iodide based flow cytometry (reference value: 4.4 +/-0.4%); assay type: functional
MDA-MB-231 [21] = assay: Induction of apoptosis in human MDA-MB-231 cells assessed as necrotic cells at 10 uM after 48 hrs by annexin V/propidium iodide based flow cytometry (reference value: 4.4 +/-0.4%); assay type: functional
MDA-MB-231 [22] = assay: Cell cycle arrest in PR, ER, HER2-negative human MDA-MB-231 cells assessed as accumulation at S phase at 1 uM after 30 hrs by flow cytometer (reference value: 33.1 +/-0.3%); assay type: functional
MDA-MB-231 [23] = assay: Cytotoxicity against PR, ER, HER2-negative human MDA-MB-231 cells after 48 hrs by WST-1 assay; assay type: functional, cell-based
MDA-MB-231 [24] = assay: Growth inhibition of PR, ER, HER2-negative human MDA-MB-231 cells after 48 hrs by WST-1 assay in presence of geranylgeranyl pyrophosphate; assay type: functional, cell-based
MDA-MB-468 [25] = assay: Total growth inhibition of PR, ER, HER2-negative human MDA-MB-468 cells after 48 hrs by WST-1 assay; assay type: functional, cell-based
MDA-MB-231 [26] = assay: Growth inhibition of PR, ER, HER2-negative human MDA-MB-231 cells at 1 uM after 48 hrs by WST-1 assay in presence of mevalonate; assay type: functional, cell-based
MCF7 [27] = assay: Total growth inhibition of ER-positive, HER2-negative human MCF7 cells after 48 hrs by WST-1 assay; assay type: functional, cell-based
MDA-MB-231 [28] = assay: Induction of p21 expression in human PR, ER, HER2-negative human MDA-MB-231 cells at 1 to 10 uM after 24 hrs by western blot analysis; assay type: functional, cell-based
MDA-MB-231 [29] = assay: Total growth inhibition of PR, ER, HER2-negative human MDA-MB-231 cells at >10 uM after 48 hrs by WST-1 assay; assay type: functional, cell-based
MDA-MB-468 [30] = assay: Cytotoxicity against PR, ER, HER2-negative human MDA-MB-468 cells after 48 hrs by WST-1 assay; assay type: functional, cell-based
AU565 [31] = assay: Growth inhibition of ER-negative, HER2-positive human AU565 cells after 48 hrs by WST-1 assay; assay type: functional, cell-based
HMEC [32] = assay: Cytotoxicity against human HMEC at 25 uM after 48 hrs by WST-1 assay; assay type: cell-based
HMEC [33] = assay: Cytotoxicity against human HMEC at >15 uM after 48 hrs by WST-1 assay; assay type: cell-based
MDA-MB-231 [34] = assay: Cytotoxicity against PR, ER, HER2-negative human MDA-MB-231 cells assessed as decrease in cell viability at >5 uM after 48 hrs by WST-1 assay; assay type: functional, cell-based
Serum = assay: Stability of the compound in mouse serum at 1 mM after 2 hrs by RP-HPLC analysis; assay type: ADME; details: 1000 µM
MDA-MB-231 [35] = assay: Stability of the compound in human MDA-MB-231 cells assessed as DHA content at 5 uM after 24 hrs by gas chromatography; assay type: ADME, cell-based; details: mda-mb-231, 24 h
AU565 [36] = assay: Cytotoxicity against ER-negative, HER2-positive human AU565 cells after 48 hrs by WST-1 assay; assay type: functional, cell-based
AU565 [37] = assay: Growth inhibition of ER-negative, HER2-positive human AU565 cells at >5 uM after 48 hrs by WST-1 assay; assay type: functional, cell-based
MDA-MB-361 [38] = assay: Cytotoxicity against ER-positive, HER2-positive human MDA-MB-361 cells at higher concentration after 48 hrs by WST-1 assay; assay type: functional, cell-based
MDA-MB-468 [39] = assay: Cytotoxicity against PR, ER, HER2-negative human MDA-MB-468 cells at >7.5 uM after 48 hrs by WST-1 assay; assay type: functional, cell-based

Row | SMILES | Activity (MDA-MB-231 [2]) | inhibition (MDA-MB-231 [3]) | Activity (MDA-MB-231 [4]) | viability at 5 µM (MDA-MB-231 [5]) | growth inhibition (GI) (MDA-MB-361 [6]) | growth inhibition (GI) (MCF7 [7]) | Activity (MDA-MB-231 [8]) | Activity (MDA-MB-231 [9]) | Activity (MDA-MB-231 [10]) | Activity (MDA-MB-231 [11]) | viability at 10 µM (MDA-MB-231 [12]) | Activity (MDA-MB-231 [13]) | Activity (MDA-MB-231 [14]) | viability at 1 µM (MDA-MB-231 [16]) | Activity (MDA-MB-231 [17]) | Activity (HMEC [19]) | Activity (MDA-MB-231 [20]) | Activity (MDA-MB-231 [21]) | Activity (MDA-MB-231 [22]) | growth inhibition (GI) (MDA-MB-231 [26]) | other results
1 | CC/C=C\C/C=C\C/C=C\C/C=C\C/C=C\C/C=C\CCC(=O)O [DOCONEXENT] | 2.6% | Active | 1.1% | 96.5% | Active | Active | 2.4% | 48.7% | 17.5% | 50.8% | 92.5% | 1.9% | 33% | 94.5% | 16.2% | Dose-dependent effect | 2.9% | 5.6% | 33.8% |  | growth inhibition (GI) (MDA-MB-231 [1]): Active; growth inhibition (GI) (MDA-MB-468 [15]): Active; TGI (AU565 [18]): Active
2 | CC[C@H](C)C(=O)O[C@H]1C[C@@H](C)C=C2C=C[C@H](C)[C@H](CC[C@@H]3C[C@@H](O)CC(=O)O3)[C@H]21 [LOVASTATIN] | 2.5% |  | 4.9% | 84.3% | Active |  | 10.8% | 74.7% | 9% | 83.9% | 84.2% | 4.6% | 9.8% | 89.7% | 6.3% | Toxic | 7.8% | 11.2% | 16.3% | inactive | Activity (MDA-MB-231 [23]): inactive; growth inhibition (GI) (MDA-MB-231 [24]): inactive; TGI (MDA-MB-468 [25]): Active; TGI (MCF7 [27]): Active; Activity (MDA-MB-231 [28]): Active; TGI (MDA-MB-231 [29]): Active; Activity (MDA-MB-468 [30]): inactive; growth inhibition (GI) (AU565 [31]): Active
3 | CC/C=C\C/C=C\C/C=C\C/C=C\C/C=C\C/C=C\CCC(=O)O[C@H]1CC(=O)O[C@H](CC[C@@H]2[C@@H]3C(=C[C@H](C)C[C@@H]3OC(=O)[C@@H](C)CC)C=C[C@@H]2C)C1 | 9.2% | Active | 7.2% | 83.3% |  | Active | 9.6% | 47.8% | 17.3% | 51.2% | 40% | 24.6% | 34.8% | 84.1% | 14.1% |  | 6.7% | 35.4% | 34.9% | Active | Activity (HMEC [32]): 25%; Activity (HMEC [33]): Toxic; Activity (MDA-MB-231 [34]): Active; Stability (Serum): Stable; Stability (MDA-MB-231 [35]): Stable; Activity (AU565 [36]): inactive; growth inhibition (GI) (AU565 [37]): Active; Activity (MDA-MB-361 [38]): Active; Activity (MDA-MB-468 [39]): Active
